Laboratory results taken from PubChem BioAssay AID256 (DTP/NCI, 2004).
Values joined by “and” are separate entries in the source; they are usually repeats but may differ in a detail not shown here. Equal values may be shown once. Toxic doses and inconclusive results are not listed. How the source made its calls: active means survival T/C of 150% or more; inactive means T/C below 125% in these data.

Test system: CD2F1 mice, L1210 leukemia ip, survival T/C
Assay: NCI In Vivo Anticancer Drug Screen. Data for tumor model L1210 Leukemia (intraperitoneal) in CD2F1 (CDF1) mice
Conditions: higher = longer survival
Summary of the method: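 Mice carrying a transplanted tumor received test compound or vehicle alone. The value is the measurement in the treated group divided by that in the vehicle-treated control group.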

[1] = endpoint: mean survival time, dose: 25.0 mg/kg/injection, schedule: Q01DX009 (ip), vehicle: saline with Tween-80
[2] = endpoint: mean survival time, dose: 25.0 mg/kg/injection, schedule: Q04DX003 (ip), vehicle: saline with Tween-80
[3] = endpoint: mean survival time, dose: 50.0 mg/kg/injection, schedule: Q01DX009 (ip), vehicle: saline with Tween-80
[4] = endpoint: mean survival time, dose: 100.0 mg/kg/injection, schedule: Q01DX009 (ip), vehicle: saline with Tween-80
[5] = endpoint: mean survival time, dose: 100.0 mg/kg/injection, schedule: Q04DX003 (ip), vehicle: saline with Tween-80
[6] = endpoint: mean survival time, dose: 200.0 mg/kg/injection, schedule: Q04DX003 (ip), vehicle: saline with Tween-80
[7] = endpoint: mean survival time, dose: 400.0 mg/kg/injection, schedule: Q04DX003 (ip), vehicle: saline with Tween-80
[8] = endpoint: mean survival time, dose: 200.0 mg/kg/injection, schedule: Q01DX009 (ip), vehicle: saline with Tween-80
[9] = endpoint: mean survival time, dose: 400.0 mg/kg/injection, schedule: Q01DX009 (ip), vehicle: saline with Tween-80
[10] = endpoint: mean survival time, dose: 100.0 mg/kg/injection, schedule: Q01DX001 (ip), vehicle: saline with Tween-80
[11] = endpoint: mean survival time, dose: 200.0 mg/kg/injection, schedule: Q01DX001 (ip), vehicle: saline with Tween-80
[12] = endpoint: mean survival time, dose: 400.0 mg/kg/injection, schedule: Q01DX001 (ip), vehicle: saline with Tween-80

Measured: T/C

O=C1/C(=C(/c2ccccc2)N2CCOCC2)Cc2ccccc21
inactive: endpoint: mean survival time, dose: 6.25 mg/kg/injection, schedule: Q01DX009 (ip), vehicle: saline with Tween-80 90 % of control | endpoint: mean survival time, dose: 6.25 mg/kg/injection, schedule: Q04DX003 (ip), vehicle: saline with Tween-80 99 % of control | endpoint: mean survival time, dose: 12.5 mg/kg/injection, schedule: Q01DX009 (ip), vehicle: saline with Tween-80 97 % of control | endpoint: mean survival time, dose: 12.5 mg/kg/injection, schedule: Q04DX003 (ip), vehicle: saline with Tween-80 91 % of control | [1] 92 % of control | [2] 98 % of control

CC(=O)OC1CCC2(C)C3CCC4(C)C(C(C)CCCC(C)C)CCC4C3C3C(=O)OC32C1 (stereo unspecified)
inactive: endpoint: mean survival time, dose: 100.0 mg/kg/injection, schedule: Q01DX001 (ip), vehicle: acetone 97 % of control | endpoint: mean survival time, dose: 100.0 mg/kg/injection, schedule: Q04DX003 (ip), vehicle: acetone 98 % of control | endpoint: mean survival time, dose: 200.0 mg/kg/injection, schedule: Q01DX001 (ip), vehicle: acetone 101 % of control | endpoint: mean survival time, dose: 200.0 mg/kg/injection, schedule: Q04DX003 (ip), vehicle: acetone 93 % of control | endpoint: mean survival time, dose: 400.0 mg/kg/injection, schedule: Q01DX001 (ip), vehicle: acetone 97 % of control | endpoint: mean survival time, dose: 400.0 mg/kg/injection, schedule: Q04DX003 (ip), vehicle: acetone 90 % of control

O=C1CCCC2C3CC(CN12)C1CCCCN1C3 (stereo unspecified)
inactive: [1] 103 % of control | [3] 101 % of control | [4] 100 % of control | [5] 97 % of control

Cc1ccc2nc(-c3ccc(NC(=O)Nc4cccc(F)c4)cc3)sc2c1
inactive: [3] 97 % of control | [4] 97 % of control

CC(=O)c1ccccc1C(C)C
inactive: [1] 91 % of control | [3] 96 % of control | [4] 94 % of control

NC(=O)CC[n+]1ccccc1
inactive: endpoint: mean survival time, dose: 12.5 mg/kg/injection, schedule: Q04DX003 (ip), vehicle: saline 97 % of control | endpoint: mean survival time, dose: 25.0 mg/kg/injection, schedule: Q04DX003 (ip), vehicle: saline 97 % of control | endpoint: mean survival time, dose: 50.0 mg/kg/injection, schedule: Q04DX003 (ip), vehicle: saline 96 % of control

CCCCCCCCCCCCS
inactive: [2] 101 % of control | endpoint: mean survival time, dose: 50.0 mg/kg/injection, schedule: Q04DX003 (ip), vehicle: saline with Tween-80 97 % of control | [5] 100 % of control and 108 % of control | [6] 91 % of control | [7] 91 % of control

O=CNc1ccc([N+](=O)[O-])cc1
inactive: [4] 101 % of control | [8] 94 % of control | [9] 91 % of control

CCCC[N+](CCCC)(CCCC)Cc1ccccc1
inactive: endpoint: mean survival time, dose: 1.5 mg/kg/injection, schedule: Q04DX003 (ip), vehicle: saline 100 % of control | endpoint: mean survival time, dose: 3.0 mg/kg/injection, schedule: Q04DX003 (ip), vehicle: saline 97 % of control | endpoint: mean survival time, dose: 6.0 mg/kg/injection, schedule: Q04DX003 (ip), vehicle: saline 94 % of control

O=C(O)C(O)(c1ccccc1)c1ccsc1 (stereo unspecified)
inactive: [5] 101 % of control | [6] 98 % of control | [7] 103 % of control

N#CO
inactive: endpoint: mean survival time, dose: 50.0 mg/kg/injection, schedule: Q01DX009 (ip), vehicle: saline sonified 100 % of control | endpoint: mean survival time, dose: 100.0 mg/kg/injection, schedule: Q01DX009 (ip), vehicle: saline sonified 118 % of control | endpoint: mean survival time, dose: 100.0 mg/kg/injection, schedule: Q04DX003 (ip), vehicle: saline 98 % of control | endpoint: mean survival time, dose: 200.0 mg/kg/injection, schedule: Q04DX003 (ip), vehicle: saline 112 % of control

CCCCCCCCCCCCCCCC(=O)N1CC[N+](C)(CC2=CC3(Cl)C(Cl)=C(Cl)C2(Cl)C3(Cl)Cl)CC1 (stereo unspecified)
inactive: endpoint: mean survival time, dose: 75.0 mg/kg/injection, schedule: Q01DX001 (ip), vehicle: saline 93 % of control | endpoint: mean survival time, dose: 150.0 mg/kg/injection, schedule: Q01DX001 (ip), vehicle: saline 100 % of control

COc1ccc(/C=C/C(=O)c2ccc(OC)c(OC)c2)cc1OC
inactive: [5] 96 % of control | [6] 101 % of control | [7] 98 % of control

CCOC(=O)CCCSc1nn(C2OC(CO)C(O)C2O)c(=O)[nH]c1=O (stereo unspecified)
inactive: endpoint: mean survival time, dose: 12.5 mg/kg/injection, schedule: Q01DX005 (ip), vehicle: water 101 % of control | endpoint: mean survival time, dose: 25.0 mg/kg/injection, schedule: Q01DX005 (ip), vehicle: water 101 % of control | endpoint: mean survival time, dose: 50.0 mg/kg/injection, schedule: Q01DX005 (ip), vehicle: water 101 % of control | endpoint: mean survival time, dose: 100.0 mg/kg/injection, schedule: Q01DX005 (ip), vehicle: water 98 % of control | endpoint: mean survival time, dose: 200.0 mg/kg/injection, schedule: Q01DX005 (ip), vehicle: water 104 % of control

O=S(=O)(NC1CCCC2C=CC=CC21)c1ccccc1 (stereo unspecified)
inactive: [10] 94 % of control | [11] 102 % of control | [12] 96 % of control

CCOC(=O)CCC(=O)CC(O)(C(F)(F)F)C(F)(F)Cl (stereo unspecified)
inactive: endpoint: mean survival time, dose: 100.0 mg/kg/injection, schedule: Q01DX009 (ip), vehicle: saline 104 % of control | [5] 86 % of control | endpoint: mean survival time, dose: 200.0 mg/kg/injection, schedule: Q01DX009 (ip), vehicle: saline 98 % of control | [6] 103 % of control | endpoint: mean survival time, dose: 400.0 mg/kg/injection, schedule: Q01DX009 (ip), vehicle: saline 107 % of control | [7] 96 % of control

CC(=O)OCCC/C(=C\c1ccc(Cl)cc1)[N+](=O)[O-]
inactive: endpoint: mean survival time, dose: 100.0 mg/kg/injection, schedule: Q01DX001 (ip), vehicle: saline 100 % of control | endpoint: mean survival time, dose: 200.0 mg/kg/injection, schedule: Q01DX001 (ip), vehicle: saline 102 % of control | endpoint: mean survival time, dose: 400.0 mg/kg/injection, schedule: Q01DX001 (ip), vehicle: saline 98 % of control

O=C(O)C(/C=C/c1ccccc1)c1ccccc1 (stereo unspecified)
inactive: [10] 112 % of control | [4] 101 % of control | [5] 92 % of control | [11] 95 % of control | [6] 91 % of control | [12] 88 % of control | [9] 103 % of control | [7] 91 % of control

NC(N)=N/N=C/c1ccncc1
inactive: endpoint: mean survival time, dose: 100.0 mg/kg/injection, schedule: Q04DX002 (ip), vehicle: saline 92 % of control

NCCCC(NN)C(=O)O (stereo unspecified)
inactive: endpoint: mean survival time, dose: 7.5 mg/kg/injection, schedule: Q01DX009 (ip), vehicle: saline 100 % of control | endpoint: mean survival time, dose: 15.0 mg/kg/injection, schedule: Q01DX009 (ip), vehicle: saline 97 % of control | endpoint: mean survival time, dose: 30.0 mg/kg/injection, schedule: Q01DX009 (ip), vehicle: saline 94 % of control

CCOC(=O)C(N)C[S][Sn]([CH3])([CH3])[Cl] (stereo unspecified)
inactive: endpoint: median survival time, dose: 3.12 mg/kg/injection, schedule: Q01DX009 (ip), vehicle: saline 98 % of control | endpoint: median survival time, dose: 6.25 mg/kg/injection, schedule: Q01DX009 (ip), vehicle: saline 97 % of control | endpoint: median survival time, dose: 12.5 mg/kg/injection, schedule: Q01DX009 (ip), vehicle: saline 100 % of control | endpoint: median survival time, dose: 25.0 mg/kg/injection, schedule: Q01DX009 (ip), vehicle: saline 89 % of control

COc1cc(OC)c(/C=C/c2cc3c4ccccc4ccc3[n+](C)c2)c(OC)c1
inactive: endpoint: mean survival time, dose: 12.5 mg/kg/injection, schedule: Q01DX001 (ip), vehicle: saline with Tween-80 104 % of control | endpoint: mean survival time, dose: 25.0 mg/kg/injection, schedule: Q01DX001 (ip), vehicle: saline with Tween-80 112 % of control | endpoint: mean survival time, dose: 50.0 mg/kg/injection, schedule: Q01DX001 (ip), vehicle: saline with Tween-80 101 % of control | [10] 94 % of control

CS(=O)(=O)c1ccncc1
inactive: endpoint: mean survival time, dose: 100.0 mg/kg/injection, schedule: Q04DX003 (ip), vehicle: saline sonified 95 % of control | endpoint: mean survival time, dose: 200.0 mg/kg/injection, schedule: Q04DX003 (ip), vehicle: saline sonified 98 % of control

Cc1cccc(C)c1NC(=O)CCl
inactive: [10] 103 % of control | [11] 100 % of control

CCOC(=O)NC1CC(OC(=O)c2ccc(C)cc2)C(COC(=O)c2ccc(C)cc2)O1 (stereo unspecified)
inactive: [4] 95 % of control | [8] 92 % of control | [9] 100 % of control

O=C(N/N=C/c1cc2c(cc1[N+](=O)[O-])OCO2)c1ccccc1
inactive: endpoint: mean survival time, dose: 12.5 mg/kg/injection, schedule: Q01DX009 (ip), vehicle: other 100 % of control | endpoint: mean survival time, dose: 25.0 mg/kg/injection, schedule: Q01DX009 (ip), vehicle: other 104 % of control | endpoint: mean survival time, dose: 50.0 mg/kg/injection, schedule: Q01DX009 (ip), vehicle: other 94 % of control | endpoint: mean survival time, dose: 100.0 mg/kg/injection, schedule: Q01DX009 (ip), vehicle: other 96 % of control | endpoint: mean survival time, dose: 200.0 mg/kg/injection, schedule: Q01DX009 (ip), vehicle: other 94 % of control
